# Results taken from patent US20100086931A1, “METHOD FOR ASSAYING ACTION OF ANTITUMOR AGENT USING DECREASE IN GENE EXPRESSION LEVEL AS INDEX” (Eisai R&D Management Co., Ltd., priority 2007, published 2010).
# Tested on: peripheral blood mononuclear cells (PBMC)
# Test: Microarray analysis (Human Genome U133 plus 2.0 array) of mRNA expression in PBMC treated with compound A
# Type: cell-based
# Settings: 10 nM, ratio to control
# Excerpt: Since it is not easy to obtain a cancer tissue clinically, the measurement of the marker in hemocytes readily obtainable in peripheral blood would be more useful. Specifically blood was taken from a normal individual (volunteer) and peripheral blood mononuclear cells were purified and treated with compound A, followed by measurement of change in expression of the gene (mRNA) with the microarray (Human Genome […] plus 2.0 array: Affymetrix).
# Ficoll-Paque PLUS solution (Amersham, 17-1440-02) was slowly added to the blood taken (with heparin added) from a healthy individual to form a layer underneath the blood (15 ml of Ficoll-Paque PLUS solution was added to 25 ml of blood). After the mixture was centrifuged at 1500 rpm for 30 min, the upper part containing platelets was removed and then a layer containing mononuclear cells was transferred to another tube. The cells were suspended in PBS and centrifuged at 1500 rpm for 5 min, followed by removal of the supernatant. After these steps were repeated twice, the cells were again suspended in RPMI1640 (containing 10% FBS). The number of the cells was then counted.
# The cells were suspended in the medium to 5×10^6 cells/ml and plated 1 ml per well of a 24-well plate. Immediately, 111 μl of compound A (ten times more concentrated than the final concentrations) was added to the well (four wells per each concentration tested). The cells were then cultured in an incubator with 5% carbon dioxide gas at 37° C. Two or four hours later, the supernatant was collected and centrifuged at 1500 rpm for five minutes. TRI reagent (SIGMA) (1 ml) was added to each well of the plate from which the supernatant was removed to harvest the cells, which was added to the centrifuged pellet to dissolve. RNA was purified in accordance with the protocol of TRI reagent. RNA was further purified using RNeasy (QIAGEN). Absorbance at 260 nm was measured to quantify an amount of RNA.
# A .cel file for each sample was obtained by using GeneChip Operating Software Ver.1.2 (Affymetrix). The RMA method was applied to ten of the .cel files obtained in the microarray experiment. Log signal intensity at a gene level was obtained by normalization of that at a probe level. By subtracting a control value from log signal intensity for each case, the log signal intensity was converted into a log signal ratio to the control. Genes were narrowed down in the basis of a log signal ratio, and a signal value. Specifically, among genes showing that the P value was 5% or less; the expression level in the untreated (control) is 100 or more by signal value; and the expression level when treated with 10 nM of compound A both for two and four hours decreased by 50% or more, genes of which expression level decreased to 25% or less upon the two-hour treatment were picked out. The software used is R2.2.1 (http://www.r-project.org/), affy package 1.8.1 (http://www.bioconductor.org).
# Among genes showing, upon the treatment with compound A, that the P value was 5% or less; the expression level in the untreated (control) is 100 or more by signal value; and the expression level when treated with 10 nM of compound A both for two and four hours decreased by 50% or more, genes of which expression level decreased to 25% or less upon the two-hour treatment, and results thereof were shown in Table 2. For each gene evaluated, gene name (Gene Name), abbreviated name (Gene Symbol), accession number (Accession), alias name (Synonym), Probe set number in Human Genome U133 Plus 2.0 Array (Human Genome U133 Plus 2.0 Array Probeset ID), the expression level upon the two-hour treatment with E7107 (E7107 (2 h)), and the expression level upon the four-hour treatment with E7107 (E7107 (4 h)) were respectively shown in Table 2.
compound,measurement,setting,value
"CCC(O)C(C)C1OC1CC(C)(O)/C=C/C=C(\C)C1OC(=O)CC(O)CCC(C)(O)C(OC(=O)N2CCN(C3CCCCCC3)CC2)/C=C/C1C (stereo not drawn) [E7107, (8E,12E,14E)-7-((4-Cycloheptylpiperazin-1-yl)carbonyl)oxy-3,6,16,21-tetrahydroxy-6,10,12,16,20-pentamethyl-18,19-epoxytricosa-8,12,14-trien-11-olide]",AHSA2 mRNA expression level (226665_at),2 h,0.21
same,ATXN1 mRNA expression level (242230_at),2 h,0.25
same,C13orf31 mRNA expression level (228937_at),2 h,0.19
same,C15orf48 mRNA expression level (223484_at),2 h,0.06
same,CCRL2//LOC642312 mRNA expression level (211434_s_at),2 h,0.22
same,CLEC5A mRNA expression level (219890_at),2 h,0.08
same,CSF2RA mRNA expression level (210340_s_at),2 h,0.10
same,CTSL1 mRNA expression level (202087_s_at),2 h,0.21
same,DHRS9 mRNA expression level (223952_x_at),2 h,0.25
same,DOK3 mRNA expression level (223553_s_at),2 h,0.23
same,FPRL2 mRNA expression level (230422_at),2 h,0.06
same,GNA15 mRNA expression level (205349_at),2 h,0.22
same,GPR84 mRNA expression level (223767_at),2 h,0.18
same,GTF2H1 mRNA expression level (202451_at),2 h,0.18
same,HNRPA2B1 mRNA expression level (225107_at),2 h,0.23
same,HPSE mRNA expression level (222881_at),2 h,0.18
same,IQCG mRNA expression level (235347_at),2 h,0.24
same,LOC51315 mRNA expression level (233329_s_at),2 h,0.21
same,MS4A7 mRNA expression level (224358_s_at),2 h,0.24
same,NLRP12 mRNA expression level (1554952_s_at),2 h,0.23
same,NRIP3 mRNA expression level (219557_s_at),2 h,0.07
same,NSMCE4A mRNA expression level (228506_at),2 h,0.24
same,OLR1 mRNA expression level (210004_at),2 h,0.05
same,RAPH1 mRNA expression level (225188_at),2 h,0.19
same,RBBP6 mRNA expression level (212781_at),2 h,0.23
same,SLC25A19 mRNA expression level (223222_at),2 h,0.18
same,SLC43A2 mRNA expression level (228918_at),2 h,0.17
same,TNFAIP6 mRNA expression level (206026_s_at),2 h,0.19
same,TNS1 mRNA expression level (221748_s_at),2 h,0.10
same,TRAPPC4 mRNA expression level (217959_s_at),2 h,0.18
same,Transcribed locus mRNA expression level (230098_at),2 h,0.22
same,WSB1 mRNA expression level (201294_s_at),2 h,0.20
same,ZCCHC6 mRNA expression level (220933_s_at),2 h,0.17
same,AHSA2 mRNA expression level (226665_at),4 h,0.15
same,ATXN1 mRNA expression level (242230_at),4 h,0.24
same,C13orf31 mRNA expression level (228937_at),4 h,0.11
same,C15orf48 mRNA expression level (223484_at),4 h,0.01
same,CCRL2//LOC642312 mRNA expression level (211434_s_at),4 h,0.35
same,CLEC5A mRNA expression level (219890_at),4 h,0.05
same,CSF2RA mRNA expression level (210340_s_at),4 h,0.06
same,CTSL1 mRNA expression level (202087_s_at),4 h,0.13
same,DHRS9 mRNA expression level (223952_x_at),4 h,0.31
same,DOK3 mRNA expression level (223553_s_at),4 h,0.26
same,FPRL2 mRNA expression level (230422_at),4 h,0.04
same,GNA15 mRNA expression level (205349_at),4 h,0.15
same,GPR84 mRNA expression level (223767_at),4 h,0.20
same,GTF2H1 mRNA expression level (202451_at),4 h,0.07
same,HNRPA2B1 mRNA expression level (225107_at),4 h,0.20
same,HPSE mRNA expression level (222881_at),4 h,0.29
same,IQCG mRNA expression level (235347_at),4 h,0.23
same,LOC51315 mRNA expression level (233329_s_at),4 h,0.13
same,MS4A7 mRNA expression level (224358_s_at),4 h,0.04
same,NLRP12 mRNA expression level (1554952_s_at),4 h,0.26
same,NRIP3 mRNA expression level (219557_s_at),4 h,0.29
same,NSMCE4A mRNA expression level (228506_at),4 h,0.18
same,OLR1 mRNA expression level (210004_at),4 h,0.02
same,RAPH1 mRNA expression level (225188_at),4 h,0.18
same,RBBP6 mRNA expression level (212781_at),4 h,0.17
same,SLC25A19 mRNA expression level (223222_at),4 h,0.20
same,SLC43A2 mRNA expression level (228918_at),4 h,0.08
same,TNFAIP6 mRNA expression level (206026_s_at),4 h,0.06
same,TNS1 mRNA expression level (221748_s_at),4 h,0.09
same,TRAPPC4 mRNA expression level (217959_s_at),4 h,0.07
same,Transcribed locus mRNA expression level (230098_at),4 h,0.14
same,WSB1 mRNA expression level (201294_s_at),4 h,0.17
same,ZCCHC6 mRNA expression level (220933_s_at),4 h,0.08
